Measurements: PubChem BioAssay AID248 (DTP/NCI, 2004)
Where “and” joins values, the source holds several entries; their conditions need not be identical. Identical values can stand only once. Inconclusive results and toxic doses are left out. Cut-off read from the data, not from the text of the source: active = T/C of 150% or more; inactive = T/C below 125%.

System: L1210 leukemia ip in BDF1 mice, survival T/C
Assay: NCI In Vivo Anticancer Drug Screen. Data for tumor model L1210 Leukemia (intraperitoneal) in B6D2F1 (BDF1) mice
Conditions: endpoint: mean survival time, higher = longer survival
Outline: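 Tumor was transplanted into mice, which were then dosed with test compound or vehicle alone. Survival was recorded for each group, and the treated figure was expressed relative to the control figure.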

[1] = dose: 50.0 mg/kg/injection, schedule: Q01DX009 (ip), vehicle: Klucel (hydroxypropylcellulose) (HPC)
[2] = dose: 100.0 mg/kg/injection, schedule: Q01DX001 (sc), vehicle: olive oil, sesame oil, peanut oil
[3] = dose: 200.0 mg/kg/injection, schedule: Q01DX001 (sc), vehicle: olive oil, sesame oil, peanut oil
[4] = dose: 400.0 mg/kg/injection, schedule: Q01DX001 (sc), vehicle: olive oil, sesame oil, peanut oil
[5] = dose: 100.0 mg/kg/injection, schedule: Q01DX001 (ip), vehicle: saline
[6] = dose: 200.0 mg/kg/injection, schedule: Q01DX001 (ip), vehicle: saline
[7] = dose: 50.0 mg/kg/injection, schedule: Q01DX009 (ip), vehicle: saline
[8] = dose: 100.0 mg/kg/injection, schedule: Q01DX009 (ip), vehicle: Klucel (hydroxypropylcellulose) (HPC)
[9] = dose: 200.0 mg/kg/injection, schedule: Q01DX009 (ip), vehicle: Klucel (hydroxypropylcellulose) (HPC)
[10] = dose: 400.0 mg/kg/injection, schedule: Q01DX009 (ip), vehicle: Klucel (hydroxypropylcellulose) (HPC)
[11] = dose: 25.0 mg/kg/injection, schedule: Q01DX009 (ip), vehicle: saline
[12] = dose: 50.0 mg/kg/injection, schedule: Q01DX009 (ip), vehicle: saline with Tween-80
[13] = dose: 100.0 mg/kg/injection, schedule: Q01DX009 (ip), vehicle: saline with Tween-80
[14] = dose: 100.0 mg/kg/injection, schedule: Q04DX003 (ip), vehicle: saline
[15] = dose: 200.0 mg/kg/injection, schedule: Q04DX003 (ip), vehicle: saline

Measured: T/C

C[N+](C)(C)c1ccc(N=C=S)cc1
inactive: dose: 12.5 mg/kg/injection, schedule: Q01DX009 (ip), vehicle: Klucel (hydroxypropylcellulose) (HPC) 94 % of control | dose: 25.0 mg/kg/injection, schedule: Q01DX009 (ip), vehicle: Klucel (hydroxypropylcellulose) (HPC) 105 % of control | [1] 103 % of control

Cc1ccc(C(C)C)c2cc(C=O)c(O)cc12
inactive: [2] 95 % of control | [3] 109 % of control | [4] 101 % of control

CCOC(=O)Cc1cc(=O)c2cc(C)ccc2[nH]1
inactive: [5] 90 % of control | [6] 89 % of control | dose: 400.0 mg/kg/injection, schedule: Q01DX001 (ip), vehicle: saline 90 % of control

Cc1cccc(N2CCN(CCO)CC2)c1
inactive: [7] 106 % of control

Cc1[nH]ccc2c(C)c3nc4c5ccccc5ccc4c3cc12
inactive: dose: 60.0 mg/kg/injection, schedule: Q01DX Z (ip), vehicle: carboxymethylcellulose (CMC) 98 % of control | dose: 120.0 mg/kg/injection, schedule: Q01DX Z (ip), vehicle: carboxymethylcellulose (CMC) 98 % of control | dose: 240.0 mg/kg/injection, schedule: Q01DX Z (ip), vehicle: carboxymethylcellulose (CMC) 90 % of control

C=CCN1C(=O)C=CC1=O
inactive: dose: 3.0 mg/kg/injection, schedule: Q04DX002 (ip), vehicle: Klucel (hydroxypropylcellulose) (HPC) 108 % of control | dose: 6.0 mg/kg/injection, schedule: Q04DX002 (ip), vehicle: Klucel (hydroxypropylcellulose) (HPC) 93 % of control

O=C1C=CC(=O)N1c1ccc2c(c1)Cc1ccccc1-2
inactive: dose: 50.0 mg/kg/injection, schedule: Q04DX003 (ip), vehicle: saline with Tween-80 98 % of control | dose: 100.0 mg/kg/injection, schedule: Q04DX003 (ip), vehicle: saline with Tween-80 108 % of control and 115 % of control | dose: 200.0 mg/kg/injection, schedule: Q04DX003 (ip), vehicle: saline with Tween-80 87 % of control

Oc1ccc(C(c2ccc(O)c(Cl)c2)c2ccccn2)cc1Cl
inactive: dose: 100.0 mg/kg/injection, schedule: Q04DX003 (ip), vehicle: Klucel (hydroxypropylcellulose) (HPC) 102 % of control | dose: 200.0 mg/kg/injection, schedule: Q04DX003 (ip), vehicle: Klucel (hydroxypropylcellulose) (HPC) 98 % of control | dose: 400.0 mg/kg/injection, schedule: Q04DX003 (ip), vehicle: Klucel (hydroxypropylcellulose) (HPC) 100 % of control

CS(=O)(=O)OCC1(c2ccccc2)CCCCC1
inactive: [2] 101 % of control | [3] 103 % of control | [4] 108 % of control

O=C(N/N=C/c1ccc(Cl)cc1)C(c1ccccc1)N1CCCCC1 (stereo not given)
inactive: dose: 100.0 mg/kg/injection, schedule: Q01DX001 (ip), vehicle: other 96 % of control | dose: 200.0 mg/kg/injection, schedule: Q01DX001 (ip), vehicle: other 87 % of control | dose: 400.0 mg/kg/injection, schedule: Q01DX001 (ip), vehicle: other 93 % of control

CC(=O)Nc1ccc(NC(=O)c2cccc(F)c2)cc1
inactive: [8] 86 % of control | [9] 102 % of control | [10] 91 % of control

O=[N+]([O-])c1ccc(C2=CSC3=NCCN23)cc1
inactive: dose: 5.0 mg/kg/injection, schedule: Q01DX001 (ip), vehicle: saline 97 % of control | dose: 10.0 mg/kg/injection, schedule: Q01DX001 (ip), vehicle: saline 95 % of control | dose: 20.0 mg/kg/injection, schedule: Q01DX001 (ip), vehicle: saline 95 % of control | [11] 110 % of control | dose: 40.0 mg/kg/injection, schedule: Q01DX001 (ip), vehicle: saline 97 % of control | [7] 95 % of control

CCCCC(=O)N/N=C/c1ccccc1Cl
inactive: [5] 102 % of control | [6] 104 % of control

CCCC(CN(C)C)C(=O)c1ccccc1 (stereo not given)
inactive: dose: 25.0 mg/kg/injection, schedule: Q01DX009 (ip), vehicle: saline with Tween-80 93 % of control | dose: 25.0 mg/kg/injection, schedule: Q04DX002 (ip), vehicle: saline with Tween-80 100 % of control | [12] 89 % of control | dose: 50.0 mg/kg/injection, schedule: Q04DX002 (ip), vehicle: saline with Tween-80 93 % of control | [13] 96 % of control | dose: 100.0 mg/kg/injection, schedule: Q04DX002 (ip), vehicle: saline with Tween-80 93 % of control

O=C(Nc1ccc2c(c1)Cc1cccc(NC(=O)C(Cl)Cl)c1-2)C(Cl)Cl
inactive: [1] 95 % of control | [9] 89 % of control

[Co]#[Sb]
inactive: dose: 75.0 mg/kg/injection, schedule: Q04DX003 (sc), vehicle: olive oil, sesame oil, peanut oil 96 % of control | dose: 150.0 mg/kg/injection, schedule: Q04DX003 (sc), vehicle: olive oil, sesame oil, peanut oil 95 % of control | dose: 300.0 mg/kg/injection, schedule: Q04DX003 (sc), vehicle: olive oil, sesame oil, peanut oil 105 % of control

C=C1c2ccccc2N(C)C1(COc1ccc(Cl)c(C)c1)OC(=O)c1cccc(Cl)c1 (stereo not given)
inactive: dose: 100.0 mg/kg/injection, schedule: Q04DX002 (ip), vehicle: Klucel (hydroxypropylcellulose) (HPC) 95 % of control | dose: 200.0 mg/kg/injection, schedule: Q04DX002 (ip), vehicle: Klucel (hydroxypropylcellulose) (HPC) 95 % of control | dose: 400.0 mg/kg/injection, schedule: Q04DX002 (ip), vehicle: Klucel (hydroxypropylcellulose) (HPC) 88 % of control

CCCNC(C)(C)C(SSS)c1cccs1 (stereo not given)
inactive: dose: 100.0 mg/kg/injection, schedule: Q04DX003 (ip), vehicle: alcohol 102 % of control | dose: 200.0 mg/kg/injection, schedule: Q04DX003 (ip), vehicle: alcohol 101 % of control

COc1ccc2c(c1)-c1c(O)c(OC)cc3c1C(C2)N(C)CC3 (stereo not given)
inactive: dose: 75.0 mg/kg/injection, schedule: Q01DX001 (ip), vehicle: saline 94 % of control | dose: 150.0 mg/kg/injection, schedule: Q01DX001 (ip), vehicle: saline 98 % of control | dose: 300.0 mg/kg/injection, schedule: Q01DX001 (ip), vehicle: saline 100 % of control

Cn1c(/C=C/c2ccccc2)c([N+](=O)[O-])c(=O)n(C)c1=O
inactive: [12] 106 % of control | [13] 98 % of control | dose: 200.0 mg/kg/injection, schedule: Q01DX009 (ip), vehicle: saline with Tween-80 98 % of control

Nc1ncnc2c1ncn2C1OC(COP(=O)(O)OP(=O)(O)OP(=O)(O)O)C(O)C1O (stereo not given)
inactive: dose: 80.0 mg/kg/injection, schedule: Q01DX Z (ip), vehicle: saline 87 % of control | dose: 120.0 mg/kg/injection, schedule: Q01DX Z (ip), vehicle: saline 87 % of control | dose: 180.0 mg/kg/injection, schedule: Q01DX Z (ip), vehicle: saline 95 % of control | dose: 270.0 mg/kg/injection, schedule: Q01DX Z (ip), vehicle: saline 98 % of control

C/C(=N/N(C)C)c1ccccc1O
inactive: [8] 103 % of control | [9] 106 % of control | [10] 92 % of control

O=C(O)c1ccc(N=Nc2nc3ccccc3[nH]2)cc1
inactive: [1] 90 % of control | [8] 93 % of control | [9] 90 % of control

O=c1cc2oc3c(O)c(O)ccc3c3c4ccccc4c(=O)c(c1)c23
inactive: dose: 12.5 mg/kg/injection, schedule: Q01DX009 (ip), vehicle: saline 92 % of control | [11] 96 % of control | [7] 103 % of control and 91 % of control | [14] 96 % of control | [15] 102 % of control

O=C(Cn1cc(F)c(=O)[nH]c1=O)c1ccco1
inactive: dose: 100.0 mg/kg/injection, schedule: Q01DX009 (ip), vehicle: saline 90 % of control | [14] 96 % of control | dose: 200.0 mg/kg/injection, schedule: Q01DX009 (ip), vehicle: saline 91 % of control | [15] 93 % of control | dose: 400.0 mg/kg/injection, schedule: Q01DX009 (ip), vehicle: saline 88 % of control | dose: 400.0 mg/kg/injection, schedule: Q04DX003 (ip), vehicle: saline 88 % of control

CN1CC(C)(C)C(=O)N1
inactive: dose: 25.0 mg/kg/injection, schedule: Q01DX001 (ip), vehicle: saline 97 % of control | dose: 50.0 mg/kg/injection, schedule: Q01DX001 (ip), vehicle: saline 100 % of control | [5] 108 % of control | [6] 86 % of control
